Assays:
[1] = Bioavailability experiments in dogs; type: in vivo
[2] = Aqueous solubility; type: physicochemical
[3] = Bioavailability experiments in rats; type: in vivo
[4] = Bioavailability study after multiple oral administration in Beagle dogs (serum levels by HPLC); type: in vivo; conditions: both sexes, dog, area under serum concentration versus time curve 0-24 hours after dosing on day 7, 10 mg/kg/day (as free base) orally in gelatine capsules for 7 days, read-out: AUC0-24.7 Mean
Protocol: After multiple administration in Beagle dogs, the bioavailability of the salts of 1′-[4-[1-(4-fluorophenyl)-1H-indole-3-yl]-1-butyl]-spiro[isobenzofuran-1(3H),4′-piperidine] was investigated as described in the following study:
Two groups, each consisting of four Beagle dogs (2 males and 2 females) were used in the study.
The dogs in the individual groups were given single daily doses of 10 mg/kg/day (calculated as free base) of the fumarate and the hydrochloride of 1′-[4-[1-(4-fluorophenyl)-1H-indole-3-yl]-1-butyl]-spiro[isobenzofuran-1(3H),4′-piperidine] for seven days.
Blood samples for serum preparation were drawn from the test animals at specific nominal time points before and after dosing on each day and analyzed using HPLC. […]
Single doses of the different salts corresponding to 10.0 mg (˜21997 nmol ) of 1′-[4-[1-(4-fluorophenyl)-1H-indole-3-yl]-1-butyl]-spiro[isobenzofuran-1(3H),4′-piperidine] per kg body weight were accurately weighed into gelatine capsules. The calculated amounts of test compound for each dog were based on body weights measured at study start. […]
The exact blood sampling times for each dog relative to the first dose were recorded. […]
The serum samples obtained were analysed for content of 1′-[4-[1-(4-fluorophenyl)-1H-indole-3-yl]-1-butyl]-spiro[isobenzofuran-1(3H),4′-piperidine] by a pseudo-normal phase HPLC-method after liquid-liquid extraction. […]

[5] = system: rats; conditions: cited from earlier work
[6] = system: sigma receptors; conditions: cited from earlier work
[7] = system: sigma receptor; conditions: cited from earlier work

Fc1ccc(-n2cc(CCCCN3CCC4(CC3)OCc3ccccc34)c3ccccc32)cc1.O=C(O)/C=C/C(=O)O [Fumarate, 1′-[4-[1-(4-fluorophenyl)-1H-indole-3-yl]-1-butyl]-spiro[isobenzofuran-1(3H),4′-piperidine], fumarate]
bioavailability [1]: limited bioavailablity | aqueous solubility [2]: very low | bioavailability [3]: limited bioavailablity | AUC(0-t) [4]: 4.02 µM·h

Cl.Fc1ccc(-n2cc(CCCCN3CCC4(CC3)OCc3ccccc34)c3ccccc32)cc1 [Hydrochloride, 1′-[4-[1-(4-fluorophenyl)-1H-indole-3-yl]-1-butyl]-spiro[isobenzofuran-1(3H),4′-piperidine], hydrochloride]
water solubility compared to the fumarate [2]: improved water solubility | AUC(0-t) [4]: 12 µM·h

Fc1ccc(-n2cc(CCCCN3CCC4(CC3)OCc3ccccc34)c3ccccc32)cc1 [free base, 1′-[4-[1-(4-fluorophenyl)-1H-indole-3-yl]-1-butyl]-spiro[isobenzofuran-1(3H),4′-piperidine]]
aqueous solubility [2]: very low | anxiolytic potential in black/white exploration test [5]: active over a large dose range | sigma ligand potency and selectivity [6]: potent and selective sigma ligand

C[C@@H]1CN(CCCn2c3ccccc3c3ccccc32)C[C@H](C)N1 [rimcazole]
clinical effect in the treatment of psychoses [7]: clinically shows effect
